Entries after “also recorded” stand apart in the source; their conditions may differ.
Experiments:
p75^NTR [1] = biological target: T1, p75^NTR (Mus musculus, UniProt Q9Z0W1); test: Visual acuity test (cue version of Morris water maze) post retinal I/R; format: in vivo; settings: WT mice
T1 construct: Interventional treatment with the p75^NTR modulator LM11A-31 (50 mg/Kg, po, QOD) for 12 weeks; from tissue; host or cells: living STZ-diabetic mice (kidney, urine, blood, body weight)
T1 sequence (Q9Z0W1 32-427): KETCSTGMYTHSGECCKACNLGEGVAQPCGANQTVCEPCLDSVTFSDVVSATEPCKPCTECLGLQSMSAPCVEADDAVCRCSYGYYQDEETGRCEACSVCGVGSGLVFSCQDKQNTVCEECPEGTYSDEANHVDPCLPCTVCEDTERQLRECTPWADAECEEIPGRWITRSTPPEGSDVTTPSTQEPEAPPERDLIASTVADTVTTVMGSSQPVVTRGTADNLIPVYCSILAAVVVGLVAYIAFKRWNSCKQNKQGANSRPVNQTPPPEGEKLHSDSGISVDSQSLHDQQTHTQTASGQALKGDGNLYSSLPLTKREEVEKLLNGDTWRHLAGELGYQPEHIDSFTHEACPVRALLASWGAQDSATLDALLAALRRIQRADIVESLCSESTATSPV
Protocol: For surgeries, mice were anesthetized with intraperitoneal ketamine (50 mg/kg; Hospira, Inc., Lake Forest, IL, USA) and xylazine (10 mg/kg; Akorn, Decatur, IL, USA). Retinal ischemia/reperfusion (I/R) was performed as described previously in Coucha, M. et al. Modulating Expression of Thioredoxin Interacting Protein (TXNIP) Prevents Secondary Damage and Preserves Visual Function in a Mouse Model of Ischemia/Reperfusion. Int. J. Mol. Sci. 2019, 20. Briefly, pupils were dilated with 1% Atropine Sulfate (Akorn, Inc., Lake Forest, IL, USA). The anterior chamber was cannulated with a 32 gauge needle attached to a line from a saline reservoir at a height calibrated to yield 120 mmHg. The intraocular pressure (IOP) was elevated to 120 mmHg for 45-60 min. I/R injury and choroidal nonperfusion was evident by whitening of the anterior segment of the globe and blanching of the episcleral veins. During infusion, topical anesthesia (0.5% tetracaine HCL, Bausch & Lomb, NJ, USA) was applied to the cornea. After ischemia, the needle was immediately withdrawn, allowing for rapid reperfusion, IOP was normalized, and reflow of the retinal vasculature was confirmed by observation of the episcleral veins. […]
Visual acuity was assessed behaviorally by training and testing mice on the “cue” version of the Morris water maze task. […]

p75^NTR on MSCs = biological target: T2, p75^NTR on MSCs (Mus musculus, UniProt Q9Z0W1); test: MSCs secretome: Western blotting of MSCs conditioned medium (CM); format: cell-based; settings: Western blot of CM vs control CM; LM11A-31: 200 nM, 12 h; or p75NTR siRNA silencing
T2 construct: endogenous in cells; host or cells: GFP-labeled mouse mesenchymal stem cells (passages 5-9)
T2 sequence (Q9Z0W1 32-427): T1 sequence (Q9Z0W1 32-427)
Protocol: (§1) GFP-labeled mouse MSCs were obtained as a kind gift from Dr. William D. Hill (MUSC, Charleston, SC) and used between passages 5-9. MSCs cells were cultured in high glucose DMEM (4.5 g/L D-glucose, Thermo-Fisher Grand Island, NY, USA) supplemented with 10% FBS and 1% penicillin/streptomycin at 37° C. and 5% CO2. Knocking down p75NTR expression was performed according to manufacturer's instructions (Santa Cruz Biotechnology Inc., Dallas, TX, USA). Briefly, MSCs were shifted to antibiotic-free medium over night when 60-80% confluent. Cells were transfected with Si-RNA against p75NTR receptor (sc-37268) or scrambled (sc-37007) with the aid of lipofectamine transfection reagent (sc-29528) for 6 h. DMEM medium containing 2× of FBS and antibiotic was added on top of pure transfection medium for an extra 12 h. Next, transfection medium was removed and cells were allowed to recover in 1×DMEM medium for 6 h. For in vivo studies, cells were collected in sterile PBS (50,000 cells/μL) for intravitreal injection 48 h after I/R. For additional set of experiments, MSCs were treated with the p75NTR modulator (LM11A-31, 200 nM). Confluent MSCs (80% confluent) were treated with LM11A-31 or its vehicle for 12 h. Then, condition media were collected as well as cell lysates using mirVANA™ PARIS™ Kit (Ambion Inc., Austin, TX, USA), according to manufacturer's instructions.

[2] = cited from earlier work
HREs [3] = test: Tube formation assay (Matrigel); format: cell-based, human; settings: 24 h of treatment with CM of modulated MSCs
Protocol: Corning Matrigel Matrix (10 mg protein/mL) Growth Factor Reduced (Corning Inc., Cat. No. 354230, Corning, NY, USA) was used for tube formation assay. Then, 289 μL of cold (4° C.) Matrigel per well was added into chilled 24-well flat-bottom tissue culture plate (USA Scientific Inc., Ocala, FL, USA) and polymerized for 1 h at 37° C., 5% CO2 incubator. HREs were trypsinized and separated into different groups. Each group of cells was centrifuged and cell pellets were resuspended in regular media without FBS, same media with 1:1 mixture of FBS free regular media and CM of vehicle- or treated-MSCs. Then 300 μL of the cell suspension was added onto each well of Matrigel coated 24-well culture plate and incubated at 37° C. After 24-h, cells forming tube structures were analyzed by microscopy. Cells in five replicate fields of triplicate wells were digitally photographed with an EVOS microscope (Thermo Fisher Scientific Inc., Waltham, MA, USA). The images for Tube formation assay were analyzed using Angiogenesis analyzer for imageJ. An area of 1.8 mm2 from each well was analyzed with imageJ ver. 1.53c, and 3 wells were analyzed per group. […] The total tubular length was calculated as the average of the total tubule length from three wells, five random fields per well.

[4] = normal young and elderly individuals; cited from earlier work
HREs [5] = test: Cell migration assay (wounded HREs, CM of treated MSCs); format: cell-based, human; settings: 12 h of treatment with CM of modulated MSCs
Protocol: HREs were grown to confluence and then were wound with a single sterile cell scraper of constant diameter. Cells were divided into three groups, treated with regular media without FBS, and 1:1 mixture of FBS-free regular media and CM of vehicle- or treated-MSCs. Images of wounded areas were taken immediately after adding the treatment using a phase contrast microscope, and baseline were marked under the cell culture dish with blue marker. After 12 h, images of same field were taken and % cell migration was calculated. Each condition was verified in triplicate and was repeated using independent cultures.

HREs [6] = test: RT-PCR gene expression in HREs treated with CM of p75NTR-modulated MSCs; format: cell-based, human
Protocol: as §1
All human retinal endothelial (HRE) cell studies were in accordance with Association for Research in Vision and Ophthalmology and Charlie Norwood Veterans Affairs Medical Center, research and ethics committee. HREs and supplies were purchased from Cell Systems Corporation (Kirkland, WA, USA) and VEC Technology Inc. (Rensselaer, NY, USA).
Retinas samples and MSCs lysates were processed using (mirVANA™ PARIS™ Kit, Ambion Inc., Austin, TX, USA) and RNA was purified and quantified as described by the manufacturer's instructions. A one-step quantitative RT-PCR kit (Invitrogen, Carlsbad, CA, USA) was used to amplify 10 ng retinal mRNA. Quantitative PCR was conducted using a StepOnePlus qPCR system (Applied BioSystems, Life Technologies, Waltham, MA, USA). For HREs, RNA isolation was performed using the TRIzol Reagent (Invitrogen, Waltham, MA, USA), according to the manufacturer's instructions. RNA concentration was quantified by spectrophotometry at 260 nm using Nanodrop 2000 (Thermo Fisher Scientific, Waltham, MA, USA). A total of 1 μg of RNA was reverse transcribed to prepare cDNA using the RNA to cDNA EcoDry premix (Takara Bio USA Inc., Mountain View, CA, USA). Real-time PCR was performed using the CFX96 PCR instrument with matched primers (See Table 1) and Universal SYBR Green Supermix (Bio-Rad, Hercules, CA, USA). The following PCR parameters were used: initial denaturation cycle at 95° C. for 3 min, followed by 40 amplification cycles at 95° C. for 10 s, 56° C. for 15 s, and 72° C. for 1 min. The results are presented as the fold change in relative gene expression quantified using the delta-delta CT method and normalized to internal controls (18 S, GAPDH) and expressed relative to controls.

p75NTR = settings: cultures of p75NTR−/− neurons; cited from earlier work
p75^NTR [7] = biological target: T1, p75^NTR; test: Interventional treatment of STZ-diabetic mice (16-weeks diabetes): kidney and systemic readouts; format: in vivo; settings: 50 mg/Kg, po, QOD, 12 weeks
[8] = cited from earlier work; remark: listed apart in the source
[9] = HREs treated with CM of modulated MSCs vs controls
[10] = HREs treated with CM of modulated MSCs, fold change, delta-delta CT, relative to controls

In the case of `CCC(C)C(N)C(=O)NCCN1CCOCC1` (stereo not shown) [LM11A-31, 2-amino-3-methyl-pentanoic acid [2-morpholin-4-yl-ethyl]-amide], the “time to reach the platform (visual-clue water maze)” value (p75^NTR [1]; I/R both eyes, 50 mg/kg/day oral gavage every other day from 48 h post I/R, 6, 9, 12, 15 days post I/R, 50 mg/kg/day) is reported as “significantly ameliorated; also recorded: attenuated”, the “area under the curve (AUC) of time to platform after 15 days” value (p75^NTR [1]; I/R, 50 mg/kg/day oral gavage every other day) is reported as “normalized” and the “NGF in MSCs conditioned medium, increase” value (p75^NTR on MSCs) is reported as about 4 Fold. For the same compound, the “SDF-1α in MSCs conditioned medium, increase” value (p75^NTR on MSCs) was about 14.9 Fold, the “VEGF-A in MSCs conditioned medium, increase” value (p75^NTR on MSCs) was 1.6 Fold and the water solubility [2] was “water-soluble”. The “number of junction points, increase” value (HREs [3]) was 1.5 Fold, the “tube length, increase” value (HREs [3]) was 1.4 Fold and the “phase I safety trial outcome” value [4] was “successfully completed”. The “HREs migration, increase” value (HREs [5]) was 1.34 Fold, the “Akt gene expression in HREs, increase” value (HREs [6]; [9]) was about 2.7 Fold and the “Bax gene expression in HREs, increase” value (HREs [6]; [9]) was about 1.9 Fold. For the same compound, the “Bcl-2 gene expression in HREs, increase” value (HREs [6]; [9]) was about 2.5 Fold, the “VEGF-A gene expression in HREs, increase” value (HREs [6]; [9]) was about 3.5 Fold and the “p53 gene expression in HREs, change” value (HREs [6]; [9]) was “no change”. The “p53 relative gene expression in HREs (mean±SEM)” value (HREs [6]; HREs treated with CM of modulated MSCs, first value of the printed pair) was 3.7±3.4, the “Akt relative gene expression in HREs (mean±SEM)” value (HREs [6]; [10]) was 2.68±0.53 and the “Bax relative gene expression in HREs (mean±SEM)” value (HREs [6]; [10]) was 1.88±0.105. The “Bcl-2 relative gene expression in HREs (mean±SEM)” value (HREs [6]; [10]) was 2.45±0.24, the “VEGF-A relative gene expression in HREs (mean±SEM)” value (HREs [6]; [10]) was 3.58±0.58 and the “specificity to p75NTR: protective activity” value (p75NTR) was “complete loss of its protective activity”. For the same compound, the “UAER normalized to creatinine” value (p75^NTR [7]; control animals) was “did not alter baseline”, the blood glucose level (p75^NTR [7]; control or diabetic animals) was “did not alter” and the “renal fibrotic markers (Fibronectin, alpha-SMA)” value (p75^NTR [7]; controls) was “did not alter base-line”. For the same compound, the “Urinary albumin excretion rate (UAER) normalized to creatinine” value (p75^NTR [7]; diabetic animals) was “significantly improved; also recorded: increase”, the body weight (p75^NTR [7]; diabetic animals) was “preserved the weight” and the “glomeruli areas (PAS staining)” value (p75^NTR [7]; diabetic animals) was “significantly preserved glomeruli areas back to normal glomeruli size”. The “glomeruli size (Trichome staining)” value (p75^NTR [7]; diabetic animals) was “preserved glomeruli size”, the “kidney NGF levels, Western Blot” value (p75^NTR [7]; diabetic animals) was “restored” and the “kidney TNF-α expression (inflammatory marker), Western Blot” value (p75^NTR [7]; diabetic animals) was “significantly prevented the increase; also recorded: significantly improved”. For the same compound, the “kidney p-JNK (apoptotic marker), Western Blot” value (p75^NTR [7]; diabetic animals) was “significantly prevented the increase; also recorded: significantly improved”, the “ratio of kidney weight to body weight” value (p75^NTR [7]; diabetic animals) was “significantly improved” and the “renal TGF-beta expression” value (p75^NTR [7]; diabetic animals) was “significantly prevented the increase; also recorded: significantly improved”. For the same compound, the “renal and urinary inflammation (kidney IL-6 and IL-1β mRNA, urine IL-1β by ELISA)” value (p75^NTR [7]; diabetic animals) was “significantly prevented the increase”, the “renal fibrosis (Trichome staining)” value (p75^NTR [7]; diabetic animals) was “significantly improved fibrosis” and the “renal fibrotic markers (Fibronectin, alpha-SMA), Western Blot” value (p75^NTR [7]; diabetic animals) was “significantly prevented the increase; also recorded: significantly improved”. For the same compound, the “p75^NTR expression in kidney sections (immunohistochemistry)” value (p75^NTR [7]; diabetic or control animals) was “did not alter”, the “ratio of kidney weight to body weight” value (p75^NTR [7]; treated controls) was “did not alter the baseline” and the blood-brain barrier crossing ([8]; 50 mg/kg, oral administration) was “cross the blood-brain barrier”. The oral bioavailability ([8]; in vivo, po) was “orally bioavailable”.

Source: patent US20240050436A1, “COMPOSITIONS AND METHODS USED FOR RETINAL ISCHEMIA OR DIABETES” (The United States GOVERNMENT As Represented By The …, priority 2021, published 2024)
